According to publication PMC137065 (Journal of Biology, 2002):
“And” between values parts separate entries of the source, which are not always exact repeats. Identical values can stand only once. Like-named read-outs stand apart in the source and are kept apart here.

What was measured:
Smo^act-expressing cells = details: ref [11],[17]; cited from earlier work
murine Smo = murine Smo (Mus musculus, UniProt P56726); assay: filtration membrane-binding assay, Smo-containing membranes from 293T cells
murine Smo, sequence (P56726 33-793): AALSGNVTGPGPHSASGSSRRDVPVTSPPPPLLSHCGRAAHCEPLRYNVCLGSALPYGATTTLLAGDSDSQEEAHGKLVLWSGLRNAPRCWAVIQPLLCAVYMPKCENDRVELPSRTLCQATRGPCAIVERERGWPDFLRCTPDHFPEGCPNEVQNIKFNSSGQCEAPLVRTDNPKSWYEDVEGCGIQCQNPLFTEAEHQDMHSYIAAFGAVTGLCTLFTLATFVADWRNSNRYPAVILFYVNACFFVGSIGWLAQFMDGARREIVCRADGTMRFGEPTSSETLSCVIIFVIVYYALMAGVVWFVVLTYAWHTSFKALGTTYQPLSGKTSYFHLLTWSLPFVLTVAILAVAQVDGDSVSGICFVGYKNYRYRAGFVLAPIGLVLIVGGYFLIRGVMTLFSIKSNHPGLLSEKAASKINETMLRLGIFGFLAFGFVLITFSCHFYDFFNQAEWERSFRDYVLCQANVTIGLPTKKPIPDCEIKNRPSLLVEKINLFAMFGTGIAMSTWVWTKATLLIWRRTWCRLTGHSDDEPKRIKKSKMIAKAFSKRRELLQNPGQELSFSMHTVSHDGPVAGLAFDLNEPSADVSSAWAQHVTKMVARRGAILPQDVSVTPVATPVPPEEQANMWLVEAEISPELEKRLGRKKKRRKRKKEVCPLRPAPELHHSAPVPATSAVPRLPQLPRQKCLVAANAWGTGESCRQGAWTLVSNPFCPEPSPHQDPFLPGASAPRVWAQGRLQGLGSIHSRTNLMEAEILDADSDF

Hh signaling = assay: luciferase-based reporter assay of Hh signaling in C3H10T1/2 cells; format: cell-based; details: for inhibition of Hh protein-activated versus agonist-activated cells: Hh protein (10 nM) or Hh-Ag 1.2 (200 nM); for effect on pathway activation by the agonist: cells activated by Hh-Ag 1.2 (200 nM)
HA-tagged Smo = HA-tagged Smo (Mus musculus, UniProt P56726); assay: whole cell/immunocomplex binding assay, Smo-transfected 293T cells; details: unlabeled competitor at 5 μM, 37°C, 2 hours
HA-tagged Smo, sequence (P56726 33-793): as above

[1] = target: murine Smo W539L (Smo^act) (Mus musculus, UniProt P56726, W539L); assay: filtration membrane-binding assay, Smo^act-containing membranes
murine Smo W539L (Smo^act), sequence (P56726 33-793 W539L): as the sequence (P56726 33-793) above, with W507L counted along it

[2] = Smo^wt, competition with [3H]-Hh-Ag 1.5 (0.4 nM)
[3] = Smo^act, competition with [3H]-Hh-Ag 1.5 (0.4 nM)

## COc1cccc(CN(C(=O)CC(C)(C)C)[C@H]2C[C@@H](C(=O)N3CCNCC3)N(Cc3ccc4c(c3)OCO4)C2)c1 [Cur61414]
Smo^act-expressing cells
  potency on Smo^act-expressing cells: decreased potency
Murine Smo; [2]
  Ki: 44 nM
Murine Smo; competitor at 10 μM
  competition of [3H]-Hh-Ag 1.5 (2 nM) binding: significantly compete
Hh signaling
  inhibition of Hh protein-activated versus agonist-activated cells: differ in their sensitivity
  effect on pathway activation by the agonist: inhibitory
HA-tagged Smo
  competition of [3H]-Hh-Ag 1.5 (5 nM) binding: significantly compete
[1]
  Ki on Smo^act- compared to Smo^wt-containing membranes: seven-fold higher
[1]; [3]
  Ki: 309 nM

## CNC1CCC(N(Cc2cccc(-c3ccncc3)c2)C(=O)c2sc3c(F)ccc(F)c3c2Cl)CC1 (stereo not shown) [Hh-Ag 1.5]
Murine Smo; [2]
  Ki: 0.52 nM and ~0.5 nM
Murine Smo; saturation binding, approximately 45 hours at 37°C, one-site model
  Kd: 0.37 nM
Murine Smo; unlabeled competitor at 2 μM
  competition of [3H]-Hh-Ag 1.5 (2 nM) binding: completely competed out
Hh signaling; cell-based reporter assay
  EC50: ~1 nM and 1 nM
Hh signaling; relative to Hh-Ag 1.1
  increase of potency by chemical modification: over 1000 fold
HA-tagged Smo
  competition of [3H]-Hh-Ag 1.5 (5 nM) binding: complete absence of counts in the immunocomplex
[1]; [3]
  Ki: ~0.5 nM
[1]; kinetic and saturation binding assay, data not shown
  affinity for Smo^act: affinity identical to that of Smo^wt

## CC1=C2C[C@H]3[C@@H](CC=C4CC(=O)CC[C@@]43C)[C@@H]2CC[C@]12O[C@@H]1C[C@H](C)CN(CCNC(=O)CCCCCNC(=O)CCc3ccccc3)[C@H]1[C@H]2C [KAAD-cyclopamine]
Smo^act-expressing cells
  potency on Smo^act-expressing cells: decreased potency
Murine Smo
  Ki: 5.8 nM
  competition of [3H]-Hh-Ag 1.5 (2 nM) binding: significantly compete
Hh signaling
  inhibition of Hh protein-activated versus agonist-activated cells: Identical results
HA-tagged Smo
  competition of [3H]-Hh-Ag 1.5 (5 nM) binding: significantly compete
[1]
  Ki: 38.3 nM
  Ki on Smo^act- compared to Smo^wt-containing membranes: seven-fold higher

## CC1=C2C[C@H]3[C@@H](CC=C4C[C@@H](O)CC[C@@]43C)[C@@H]2CC[C@]12O[C@@H]1C[C@H](C)CN[C@H]1[C@H]2C [cyclopamine]
Hh signaling
  inhibition of Hh protein-activated versus agonist-activated cells: differ in their sensitivity

## C=C[C@@]1(C)CC(=O)[C@]2(O)[C@@]3(C)[C@@H](O)CCC(C)(C)[C@@H]3[C@H](O)[C@H](OC(C)=O)[C@@]2(C)O1 [forskolin]
Hh signaling
  inhibition of Hh protein-activated versus agonist-activated cells: identical inhibition curves
  effect on pathway activation by the agonist: inhibitory

## CC1=C2C(=O)[C@H]3[C@@H](CC=C4C[C@@H](O)CC[C@@]43C)[C@@H]2CC[C@]12O[C@@H]1C[C@H](C)CN[C@H]1[C@H]2C [jervine]
Hh signaling
  inhibition of Hh protein-activated versus agonist-activated cells: Identical results

## C[C@H]1CC[C@]2(NC1)O[C@H]1C[C@H]3[C@@H]4CC[C@H]5C[C@@H](O)CC[C@]5(C)[C@H]4CC[C@]3(C)[C@H]1[C@@H]2C [tomatadine]
Hh signaling; described in words
  Hh signaling activity: inactive
